Measurements published in patent US20250186600A1, “EXCIPIENT COMPOUNDS FOR PROTEIN FORMULATIONS” (Comera Life Sciences, Inc., priority 2020, published 2025).
Several values for one entry are separate records, joined by “and”; a condition that tells them apart may be missing. Equal entries are not always repeated. One block for each compound: values may come before it.

Legend:
[1] = tested on: bovine gamma globulin (BGG); assay: Normalized viscosity of BGG with caffeine and a secondary excipient (Example 40); assay type: physicochemical; settings: BGG about 280 mg/mL, 20 mM histidine pH 6, 25° C.
BGG = settings: Table 15; versus 130.6 cP with no excipient
bevacizumab (AVASTIN®) = assay: Viscosity of AVASTIN with caffeine, microVisc (Example 39); assay type: physicochemical; settings: for % Viscosity Reduction from Excipient: 10 mg/mL caffeine vs no excipient; for Viscosity with 10 mg/mL added caffeine excipient: 10 mg/mL caffeine, 25 mM histidine HCl
Procedure: Viscosity was measured by RheoSense microVisc and concentration was determined by absorbance at 280 nm (extinction coefficient, 1.605 mL/mg). […].

[2] = molecular target: T1, PEGylated BSA with 1 PEG chain per BSA molecule (Bos taurus, UniProt P02769); assay: Viscosity of PEGylated BSA with 1 PEG chain per BSA molecule (Example 16); assay type: physicochemical; settings: Table 8; versus 228.6 cP with no excipient
T1 construct: purchased Aldrich A7906
Procedure: To a beaker was added 200 mL of a phosphate buffered saline (Aldrich Cat. #P4417) and 4 g of BSA (Aldrich Cat. #A7906) and mixed with a magnetic bar. Next 400 mg of methoxy polyethylene glycol maleimide, MW=5,000, (Aldrich Cat. #63187) was added. The reaction mixture was allowed to react overnight at room temperature. The following day, 20 drops of HCl 0.1 M were added to stop the reaction. […] The reaction mixture was placed in an Amicon centrifuge tube with a molecular weight cutoff (MWCO) of 30 kDa and concentrated to a few milliliters. Next the sample was diluted 20 times with a histidine buffer, 50 mM at a pH of approximately 6, followed by concentrating until a high viscosity fluid was obtained.
The viscometer measurements were completed at ambient temperature.

[3] = molecular target: PEGylated lysozyme with multiple PEG chains per lysozyme molecule (Gallus gallus, UniProt P00698); settings: Table 10
omalizumab [4] = assay: Freeze/thaw stress (6 cycles), monomer by SE-HPLC (Example 57); assay type: physicochemical; settings: excipient 100 mM, omalizumab 2 mg/mL, 20 mM Histidine pH 6.0, freeze (−80° C.)/thaw
Procedure: Therapeutic proteins are frequently kept at low temperatures to improve their kinetic stability and minimize structural perturbations that could lead to the aggregation of the protein and a decrease in the active native species. In certain cases, this might be done by freezing the formulation until use. However, the low temperatures, concentration gradients, and ice formation during repeated freezing and thawing can stress the protein. […] The formulations were then aliquoted into 0.5 mL cryovials and frozen at −80° C. for 120 min. The samples were then thawed using a water bath kept at room temperature.

ustekinumab [5] = assay: Accelerated aging at 40° C. for 4 weeks, monomer by SE-HPLC (Example 58); assay type: physicochemical; settings: excipient 100 mM, ustekinumab 2 mg/mL, 20 mM Histidine pH 6.0, 40° C. for 4 weeks
Procedure: 1 mL of each sample was aliquoted into 2 mL glass vials (West Pharmaceutical services, PA) and incubated at 40° C. for 4 weeks. The aliquots were withdrawn after 0, 1, 2, 3, and 4 weeks.

ustekinumab [6] = assay: Thermal stability at 65 deg C., increase in percent monomer by SE-HPLC (Example 55); assay type: physicochemical; settings: excipient 5 mg/mL, ustekinumab 1 mg/mL, 20 mM Histidine pH 6.0, 65 deg C., 120 min
Text: Therapeutic proteins are frequently subjected to fluctuations in temperatures, which may lead to changes in their tertiary and secondary structural elements. This leads to aggregation of the protein and a decrease in the active native species.

pembrolizumab = assay: Thermal stability of pembrolizumab at 40 C for 4 weeks, SE-HPLC (Example 70); settings: Excipient added at 400 mM; pembrolizumab 10 mg/ml, 5 mM phosphate pH 7.5, 40 C for 4 weeks
nivolumab = assay: Thermal stability of nivolumab at 40 C for 4 weeks, SE-HPLC (Example 69); settings: Excipient added at 400 mM; nivolumab 10 mg/ml, 5 mM phosphate pH 7.5, 40 C for 4 weeks
infliximab = assay: Thermal stability at 50° C. with caffeine and excipients, SE-HPLC (Example 63); assay type: physicochemical; settings: excipient 0.5 M, caffeine 50 mM, infliximab 10 mg/mL, 5 mM phosphate pH 7.5, 50° C., 180 min
Procedure: Therapeutic proteins stress leads to aggregation of the protein and a decrease in the active native species. […] The aliquots were withdrawn at 0 min, 90 min and 180 min. […] Diode array detector.

omalizumab [7] = assay: DLS viscosity of concentrated omalizumab with nicotinamide mononucleotide and itaconic acid (Example 52); assay type: physicochemical; settings: 20 mM His HCl pH 6, excipient stock 1 M or solubility limit
ustekinumab-FITC = assay: Mechanical shear stability of ustekinumab-FITC, particle radius by DLS (Example 60); settings: ustekinumab-FITC 1 mg/mL, 20 mM histidine pH 6, 300 rpm 72 h 23° C.
[8] = tested on: bovine gamma globulin (BGG); assay: Viscosity of 280 mg/mL BGG formulations with excipient compounds, cone and plate viscometer (Examples 1, 2, 4-6); assay type: physicochemical
omalizumab [9] = assay: Mechanical shear stress (agitation 72 h), absorbance at 350 nm (Example 47); assay type: physicochemical; settings: excipient 0.5 mg/mL, omalizumab 2 mg/mL, 22° C., 72 h agitation at 300 rpm

PEGylated lysozyme with multiple PEG chains per lysozyme molecule, sequence (P00698 19-147): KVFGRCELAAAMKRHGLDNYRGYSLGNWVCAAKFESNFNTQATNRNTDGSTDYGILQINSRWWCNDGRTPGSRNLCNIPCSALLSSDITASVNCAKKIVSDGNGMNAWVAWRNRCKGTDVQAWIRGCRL
T1 sequence (P02769 25-607): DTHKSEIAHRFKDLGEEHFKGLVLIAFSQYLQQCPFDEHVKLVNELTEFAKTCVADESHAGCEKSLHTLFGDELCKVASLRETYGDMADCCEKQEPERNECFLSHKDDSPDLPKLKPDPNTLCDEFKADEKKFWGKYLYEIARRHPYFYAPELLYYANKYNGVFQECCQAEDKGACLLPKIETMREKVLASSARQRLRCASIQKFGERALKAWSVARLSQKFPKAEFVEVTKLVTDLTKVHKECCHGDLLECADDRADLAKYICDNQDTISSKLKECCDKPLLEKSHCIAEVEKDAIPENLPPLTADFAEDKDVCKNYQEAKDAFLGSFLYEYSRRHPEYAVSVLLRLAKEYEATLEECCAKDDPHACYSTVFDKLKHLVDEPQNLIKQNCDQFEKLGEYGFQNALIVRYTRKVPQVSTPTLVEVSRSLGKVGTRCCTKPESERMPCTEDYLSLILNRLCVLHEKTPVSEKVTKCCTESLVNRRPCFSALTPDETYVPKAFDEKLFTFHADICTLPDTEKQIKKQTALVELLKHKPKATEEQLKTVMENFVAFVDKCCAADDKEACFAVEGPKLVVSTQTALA

Compound: N=C(N)NCCC[C@H](N)C(=O)O [Arginine, reference compound]
Normalized Viscosity ([1]; Excipient A caffeine 15 mg/mL + Excipient B 20 mg/mL): 0.63
Viscosity Reduction (%) (BGG): 41%

Compound: Cn1c(=O)c2c(ncn2C)n(C)c1=O [Caffeine]
Normalized Viscosity ([1]; Excipient A caffeine 15 mg/mL, no Excipient B): 0.77
Viscosity Reduction (%) (BGG): 33%
% Viscosity Reduction from Excipient (bevacizumab (AVASTIN®); AVASTIN 190 mg/mL): 36%
Viscosity with 10 mg/mL added caffeine excipient (bevacizumab (AVASTIN®); AVASTIN 190 mg/mL): 13 cP
% Viscosity Reduction from Excipient (bevacizumab (AVASTIN®); AVASTIN 213 mg/mL): 73%
Viscosity with 10 mg/mL added caffeine excipient (bevacizumab (AVASTIN®); AVASTIN 213 mg/mL): 22 cP
% Viscosity Reduction from Excipient (bevacizumab (AVASTIN®); AVASTIN 266 mg/mL): 62%
Viscosity with 10 mg/mL added caffeine excipient (bevacizumab (AVASTIN®); AVASTIN 266 mg/mL): 113 cP

Compound: CC(=O)[O-].[K+] [K acetate, potassium acetate]
Viscosity Reduction [2]: 60%
Viscosity (cP) ([3]; PEGylated lysozyme, 500 s-1, ambient temperature, excipient 20 mg/mL): 22.6 cP
Viscosity Reduction ([3]; versus 24.6 cP with no excipient): 8%

Compound: OC[C@H]1O[C@@](CO)(OC[C@@]2(O[C@H]3O[C@H](CO)[C@@H](O)[C@H](O)[C@H]3O)O[C@H](CO)[C@@H](O)[C@@H]2O)[C@@H](O)[C@@H]1O [Kestose]
% increase in monomer content vs. control (omalizumab [4]): 71.18%
% increase in monomer content vs. control (ustekinumab [5]): 8.4%
% increase in monomer content vs. control (ustekinumab [6]): 5.9%
% Monomer remaining (pembrolizumab): 82.6%
% Monomer remaining (nivolumab): 92.4%

Compound: O=C(O)[C@H](O)[C@@H](O)[C@H](O[C@@H]1O[C@H](CO)[C@H](O)[C@H](O)[C@H]1O)[C@H](O)CO [Lactobionic acid]
% Monomer remaining (pembrolizumab): 82.1%
% change compared to control (infliximab): 20.8%
% Monomer remaining (nivolumab): 89.8%

Compound: O=C([O-])c1ccccc1O.[Na+] [Sodium salicylate]
Viscosity Reduction [8]: 28% and 34%
Viscosity (cP) ([8]; pH 6): 57 cP and 52 cP

Compound: Alpha-Cyclodextrin sulfated Na salt
Viscosity Reduction [2]: 34%

Continued, values first:

DLS Viscosity, Replicate 1 (omalizumab [7]): 33.6 cP
DLS Viscosity, Replicate 2 (omalizumab [7]): 22.2 cP
Compound: NC(=O)c1ccc[n+]([C@@H]2O[C@H](COP(=O)([O-])O)[C@@H](O)[C@H]2O)c1 [Nicotinamide mononucleotide]

% Monomer remaining (pembrolizumab): 79.2%
% change compared to control (infliximab): 13.1%
% Monomer remaining (nivolumab): 85.6%
Compound: CO[C@H]1[C@H](O)[C@@H](O)[C@@H](O)[C@H](O)[C@@H]1O [Pinitol]

DLS particle radius (nm) after shear test (ustekinumab-FITC; excipient 8.3 mg/mL): 6.2 nm
Compound: C=C1C[C@@]23CC[C@H]4[C@@](C)(CCC[C@@]4(C)C(=O)O[C@@H]4O[C@H](CO)[C@@H](O)[C@H](O)[C@H]4O)[C@@H]2CC[C@]1(O[C@@H]1O[C@H](CO)[C@@H](O)[C@H](O)[C@H]1O)C3 [Rubusoside]

% decrease of A350 signal vs. control (omalizumab [9]): 73.2%
DLS particle radius (nm) after shear test (ustekinumab-FITC; excipient 5 mg/mL): 6.4 nm
Compound: Madecassoside

% decrease of A350 signal vs. control (omalizumab [9]): 73.2%
DLS particle radius (nm) after shear test (ustekinumab-FITC; excipient 5 mg/mL): 5.8 nm
Compound: Rebaudioside A
